Measured values as given in patent EP1272183B1, “METHODS AND COMPOSITIONS USEFUL IN ENHANCING OXYGEN DELIVERY TO CELLS” (Niadyne Corporation, priority 2000, dated 2001).

What was measured:
[1] = tested on: skin of human volunteers; experiment: Visual observation of vasodilation (blushing) after topical application of niacin ester lotions to the forearm; assay type: in vivo; details: for Vasodilation at 0.1% / Vasodilation Effect at 0.1% Duration / Vasodilation Effect at 0.1% Onset: 0.1% in skin lotion; for Vasodilation at 0.1% / Vasodilation at 1.0%: anterior surface of forearm, visual observation of blushing; for Vasodilation at 1.0%: 1.0% in skin lotion; for Vasodilation Effect at 0.1% Duration / Vasodilation Effect at 0.1% Onset: visual determination
Experimental: This example details the first of two sets of experiments designed to determine the vasodilation effect of alkyl niacin esters. Formulations were prepared by combining the alkyl esters referred to supra in a skin lotion, at 0.1% and 1.0% concentrations. The lotions were applied topically to the skin of human volunteers on the anterior surface of a forearm. Vasodilation was observed visually, i.e., by observing blushing at the site of application, or lack thereof. Both onset and duration of vasodilation were measured.
Table 1: Properties of Niacin Esters

[2] = Determination of log P (Poct/w) values in accordance with Harnisch, et al.; assay type: physicochemical; details: experimentally determined, following Harnisch
Experimental: The Poct/w values for these compounds were determined in accordance with Harnisch, et al., J. Chromatog.

[3] = tested on: skin; experiment: Skin oxygen and CO2 content measured with a transcutaneous monitor after topical application; assay type: in vivo, human
Experimental: To examine this issue, the oxygen content of skin to which the octyl ester discussed supra was determined directly, using a transcutaneous oxygen monitor. The 1% formulation of the octyl ester was applied to skin for 30 minutes. After this thirty minute period, the skin was cleaned with soap and water, wiped with an alcohol swab, and a drop of deionized water was placed on the sensor surface before its attachment to the anterior surface of the volunteers' forearms. The transcutaneous values were recorded constantly, and stored by the instrument. The monitor measures relative oxygen content, because the temperature at which the monitor operates does impact the oxygen permeability of the stratum corneum. See, e.g., Martin, Resp. […] The sensor was calibrated at 4 hour intervals, or whenever the sensor temperature was changed.
The monitor was operated at a temperature of 40°C. Values are given for both a control, and the formulation described herein.
In a follow-up experiment, the monitor was op erated at 38°C, and both O2 and CO2 were measured, with a combined transcutaneous oxygen and CO2 monitor. […] The control is represented by the dotted line.
Parallel experiments were carried out using 0.1% octyl niacin ester lotion, and a lotion containing octyl niacin ester (0.1 %), and 0.1 % butyl benzoate.
Oxygen content was measured in the same way as is described, supra, or using other techniques known to the art.

[4] = monitor at 38°C, versus control, Figure 3

Row | Structure (SMILES) | Vasodilation at 0.1% [1] | Vasodilation at 1.0% [1] | logP [2] | further results
1 | CCCCCCCCCOC(=O)c1cccnc1 [9 carbons] | No | Yes | – | Vasodilation at 1.0% ([1]; listed as C9): caused vasodilation
2 | CCCCCCOC(=O)c1cccnc1 [6 carbons, Hexyl niacin] | Yes | Yes | 3.5 | Vasodilation Effect at 0.1% Duration [1]: 60 to 90 min; Vasodilation Effect at 0.1% Onset [1]: 10 to 15 min
3 | CCCCCCCCCCCCCOC(=O)c1cccnc1 [13 carbons] | No | No | 7.5 | –
4 | CCOC(=O)c1cccnc1 [2 carbons, Ethyl niacin] | Yes | Yes | – | Vasodilation Effect at 0.1% Duration [1]: 30 to 45 min; Vasodilation Effect at 0.1% Onset [1]: 5 to 10 min
5 | CCCCCCCCOC(=O)c1cccnc1 [8 carbons, Octyl niacin] | Yes | Yes | – | skin oxygen (transcutaneous oxygen monitor) ([3]; 1% formulation applied to skin for 30 minutes, monitor at 40°C, versus control, Figure 2): sustained increase in skin oxygen; CO2 content (combined transcutaneous oxygen and CO2 monitor) [3, 4]: decrease in CO2 content; skin oxygen content (combined transcutaneous oxygen and CO2 monitor) [3, 4]: sustained increase in skin oxygen content; Vasodilation Effect at 0.1% Duration [1]: 240 to 360 min; Vasodilation Effect at 0.1% Onset [1]: 10 to 20 min; Vasodilation Effect at 0.1% Duration ([1]; listed as C8): longest effect
6 | CCCCCCCCCCCCCCCCCCOC(=O)c1cccnc1 [18 carbons] | No | No | 9.7 | –
7 | CCCCCCCCCCCCCCCCOC(=O)c1cccnc1 [16 carbons] | No | No | 9.2 | –
8 | CCCCCCCCCCCCCCOC(=O)c1cccnc1 [14 carbons] | No | No | – | logP ([2]; octanol/water): 7.6
9 | CCCCCCCCCCCCOC(=O)c1cccnc1 [12 carbons] | No | No | – | logP ([2]; octanol/water): 6.6
10 | COC(=O)c1cccnc1 [1 carbon] | Yes | Yes | – | –
11 | CCCCCCCCCCOC(=O)c1cccnc1 [10 carbons] | No | Yes | 5.8 | Vasodilation at 1.0% ([1]; listed as C10): caused vasodilation
12 | CCCCOC(=O)c1ccccc1 [Butyl benzoate, reference compound] | – | – | – | effect on the increase in oxygen content caused by octyl niacin ester ([3]; lotion containing octyl niacin ester (0.1 %) and 0.1 % butyl benzoate versus 0.1% octyl niacin ester lotion, Figure 4): blocked the increase in oxygen content; chromatographic logP ([2]; octanol/water): 3.5
13 | CCCCCCCCCCCCCCCOC(=O)c1cccnc1 [15 carbons] | No | No | 8.3 | –
14 | CCCCOC(=O)c1cccnc1 [4 carbons] | Yes | Yes | 2.4 | –
15 | CCCCCCCCCCCOC(=O)c1cccnc1 [11 carbons] | No | Slight | – | –
